US10392368B2, “Pyrazolo and triazolo bicyclic compounds as JAK kinase inhibitors” (THERAVANCE BIOPHARMA R&D IP, LLC, priority 2017, dated 2019)

How the values were obtained:
[1] = target: T1, Tyk2 (Homo sapiens, UniProt P29597); assay: Biochemical Tyk2 kinase assay (LanthaScreen)
T1 construct: GST; purchased Life Technologies
Method in brief: (§1)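 GST-tagged JAK enzyme and GFP-STAT1 peptide preincubated with compound 1 h, then ATP added; 1 h kinase reaction at ambient temperature, pH 7.5 HEPES/MgCl2 buffer, 1% DMSO. Tb-anti-pSTAT1 (pTyr701) TR-FRET, 520/495 nm ratio; IC50 from 4-parameter fit, converted to pKi via Cheng-Prusoff.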

[2] = target: T2, JAK2 (Homo sapiens, UniProt O60674); assay: Biochemical JAK2 kinase assay (LanthaScreen)
T2 construct: GST; purchased Life Technologies
T2 sequence (O60674 whole entry): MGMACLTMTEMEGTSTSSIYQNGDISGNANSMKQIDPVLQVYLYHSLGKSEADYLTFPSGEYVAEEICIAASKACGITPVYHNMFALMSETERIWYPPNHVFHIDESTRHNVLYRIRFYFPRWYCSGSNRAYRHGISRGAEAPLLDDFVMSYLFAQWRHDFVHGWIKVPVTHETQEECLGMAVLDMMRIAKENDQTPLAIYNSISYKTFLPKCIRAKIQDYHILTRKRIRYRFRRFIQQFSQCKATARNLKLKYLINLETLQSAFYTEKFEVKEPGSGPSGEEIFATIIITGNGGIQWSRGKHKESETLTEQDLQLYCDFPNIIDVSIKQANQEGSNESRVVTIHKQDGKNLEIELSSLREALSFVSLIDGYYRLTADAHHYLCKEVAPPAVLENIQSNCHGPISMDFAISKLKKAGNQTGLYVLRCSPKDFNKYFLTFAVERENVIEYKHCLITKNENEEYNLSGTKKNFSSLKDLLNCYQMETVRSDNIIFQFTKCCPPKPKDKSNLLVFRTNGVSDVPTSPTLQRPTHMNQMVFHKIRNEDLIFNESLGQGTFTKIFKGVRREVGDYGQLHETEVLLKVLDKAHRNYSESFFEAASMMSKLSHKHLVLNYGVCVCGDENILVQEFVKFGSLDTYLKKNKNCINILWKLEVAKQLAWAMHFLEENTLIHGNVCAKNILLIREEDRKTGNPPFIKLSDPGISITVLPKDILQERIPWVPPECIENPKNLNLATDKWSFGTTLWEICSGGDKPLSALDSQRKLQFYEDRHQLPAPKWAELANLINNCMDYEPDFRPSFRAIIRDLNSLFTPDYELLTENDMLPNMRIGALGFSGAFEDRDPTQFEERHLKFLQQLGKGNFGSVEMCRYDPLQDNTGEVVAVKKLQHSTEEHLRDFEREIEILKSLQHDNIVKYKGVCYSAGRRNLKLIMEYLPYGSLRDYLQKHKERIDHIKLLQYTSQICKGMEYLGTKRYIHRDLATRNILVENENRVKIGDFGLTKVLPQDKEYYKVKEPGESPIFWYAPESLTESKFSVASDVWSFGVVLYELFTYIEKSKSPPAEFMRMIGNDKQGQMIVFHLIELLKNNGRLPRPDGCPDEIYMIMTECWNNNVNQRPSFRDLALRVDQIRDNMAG
Method in brief: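 GST-tagged recombinant JAK2 pre-incubated 1 h at ambient temperature with compound and GFP-STAT1 peptide in HEPES pH 7.5/MgCl2 buffer, then ATP added for a 1 h reaction with 1% DMSO. TR-FRET read after EDTA and Tb-anti-pSTAT1 (pTyr701) addition; IC50 from 4-parameter fit, converted to pKi by Cheng-Prusoff.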

[3] = target: T3, JAK1 (Homo sapiens, UniProt P23458); assay: Biochemical JAK1 kinase assay (LanthaScreen)
T3 construct: GST; purchased Life Technologies
T3 sequence (P23458 whole entry): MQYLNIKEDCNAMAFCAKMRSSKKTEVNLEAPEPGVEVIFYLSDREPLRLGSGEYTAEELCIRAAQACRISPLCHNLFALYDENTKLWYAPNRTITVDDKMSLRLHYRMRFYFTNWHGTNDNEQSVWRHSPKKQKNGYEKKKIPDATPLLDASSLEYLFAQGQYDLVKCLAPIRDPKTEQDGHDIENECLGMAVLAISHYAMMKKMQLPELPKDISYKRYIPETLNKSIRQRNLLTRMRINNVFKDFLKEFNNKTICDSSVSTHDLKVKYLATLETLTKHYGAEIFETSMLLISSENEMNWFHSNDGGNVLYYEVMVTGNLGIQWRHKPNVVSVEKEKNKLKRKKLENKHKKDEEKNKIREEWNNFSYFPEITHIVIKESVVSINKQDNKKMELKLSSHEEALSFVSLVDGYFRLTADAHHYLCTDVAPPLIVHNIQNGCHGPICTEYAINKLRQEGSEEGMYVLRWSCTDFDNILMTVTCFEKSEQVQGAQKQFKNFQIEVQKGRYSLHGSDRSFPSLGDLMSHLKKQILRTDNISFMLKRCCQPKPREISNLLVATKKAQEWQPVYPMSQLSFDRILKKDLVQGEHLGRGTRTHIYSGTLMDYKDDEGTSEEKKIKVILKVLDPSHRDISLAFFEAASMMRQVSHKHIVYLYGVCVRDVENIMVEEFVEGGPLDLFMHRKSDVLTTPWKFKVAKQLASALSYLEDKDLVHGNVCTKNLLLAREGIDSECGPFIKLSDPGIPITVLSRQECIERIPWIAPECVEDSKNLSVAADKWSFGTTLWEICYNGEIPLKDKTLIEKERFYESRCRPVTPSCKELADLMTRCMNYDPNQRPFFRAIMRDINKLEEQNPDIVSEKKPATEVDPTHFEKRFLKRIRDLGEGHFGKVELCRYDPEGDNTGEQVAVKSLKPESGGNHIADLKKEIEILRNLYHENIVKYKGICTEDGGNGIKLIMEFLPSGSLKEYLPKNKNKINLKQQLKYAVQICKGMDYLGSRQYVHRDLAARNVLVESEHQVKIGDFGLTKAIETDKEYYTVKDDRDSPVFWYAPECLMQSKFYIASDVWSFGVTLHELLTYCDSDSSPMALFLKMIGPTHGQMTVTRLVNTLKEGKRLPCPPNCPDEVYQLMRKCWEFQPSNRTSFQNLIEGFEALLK
Method in brief: as §1

[4] = target: T4, JAK3 (Homo sapiens, UniProt P52333); assay: Biochemical JAK3 kinase assay (LanthaScreen); set-up: GST; purchased Life Technologies
T4 sequence (P52333 1-1124): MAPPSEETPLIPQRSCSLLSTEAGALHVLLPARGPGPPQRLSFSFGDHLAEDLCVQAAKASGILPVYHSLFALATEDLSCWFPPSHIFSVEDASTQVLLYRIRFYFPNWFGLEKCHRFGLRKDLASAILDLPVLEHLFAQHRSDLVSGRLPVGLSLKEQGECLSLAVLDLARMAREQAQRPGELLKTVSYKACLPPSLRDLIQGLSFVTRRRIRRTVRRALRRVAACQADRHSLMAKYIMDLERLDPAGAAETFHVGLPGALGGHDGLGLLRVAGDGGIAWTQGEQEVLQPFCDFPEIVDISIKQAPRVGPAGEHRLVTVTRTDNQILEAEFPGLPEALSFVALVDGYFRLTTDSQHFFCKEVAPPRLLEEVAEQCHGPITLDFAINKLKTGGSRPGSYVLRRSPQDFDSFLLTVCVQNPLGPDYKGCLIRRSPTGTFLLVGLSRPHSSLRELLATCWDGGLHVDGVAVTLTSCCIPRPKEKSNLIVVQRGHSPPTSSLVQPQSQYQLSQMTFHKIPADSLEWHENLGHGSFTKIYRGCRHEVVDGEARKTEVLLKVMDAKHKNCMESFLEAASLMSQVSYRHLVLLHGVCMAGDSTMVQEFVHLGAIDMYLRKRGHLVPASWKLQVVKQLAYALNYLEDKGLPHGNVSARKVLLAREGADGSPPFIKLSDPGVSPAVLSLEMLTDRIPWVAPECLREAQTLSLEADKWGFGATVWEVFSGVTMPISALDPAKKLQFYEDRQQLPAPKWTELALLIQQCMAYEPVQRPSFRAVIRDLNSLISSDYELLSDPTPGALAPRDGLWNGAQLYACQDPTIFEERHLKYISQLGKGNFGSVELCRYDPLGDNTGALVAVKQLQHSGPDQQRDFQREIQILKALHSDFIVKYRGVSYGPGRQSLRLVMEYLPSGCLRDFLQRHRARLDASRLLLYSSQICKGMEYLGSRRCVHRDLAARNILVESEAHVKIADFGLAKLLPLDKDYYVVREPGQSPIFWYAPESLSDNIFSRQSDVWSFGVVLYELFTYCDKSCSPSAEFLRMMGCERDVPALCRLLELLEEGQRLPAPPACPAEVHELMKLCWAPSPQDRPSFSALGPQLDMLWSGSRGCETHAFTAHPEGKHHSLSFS
Method in brief: as §1

[5] = tested on: oxazolone-induced colitis; assay: Mouse model of oxazolone-induced colitis; assay type: in vivo
Protocol: Oxazolone-induced colitis is an experimental model that has a histological resemblance to human ulcerative colitis (Heller et al. Immunology, 2002, 17, 629-638). Adult BALB/C mice from Harlan were used in the assay. On day 1, animals were lightly anesthetized with isoflurane and the hairs between the shoulder were carefully removed before oxazolone (4%, 150 μL, 4:1 acetone:olive oil formulation) or vehicle solution was slowly applied for skin sensitization. Seven days after skin sensitization, the mice were fasted around 6 hours prior, anesthetized with ketamine/xylazine injection, and a 1 mL syringe equipped with a 3.5-F catheter, filled with oxazolone solution, was inserted carefully about 4 cm into the colon of the mouse. Following insertion, 50 μL of the oxazolone solution (0.8% in 1:1 ethanol:water formulation) was injected very slowly (over 30 sec using an injection pump) into the colon. Drug treatment (PO, QD or BID or TID) or vehicle was initiated a day prior to the oxazolone intrarectal (IR) challenge. Two-day post oxazolone intrarectal challenge, the disease was assessed by treatment-blinded experimenters for each mouse according to the criteria score: stool consistency score (0, normal; 2, loose; 4, diarrhea), gross bleeding score (0, absence; 2, blood tinged; 4, presence); Combined stool score endpoint=stool consistency score+stool blood score.
Select compounds were tested in the assay.

[6] = tested on: IL-2 stimulated pSTAT5 in Tall-1 T cells; assay: Cellular JAK3 potency assay: inhibition of IL-2 stimulated pSTAT5 in Tall-1 T cells; assay type: cell-based, human
Method in brief: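 Tall-1 human T cells (45,000/well) in phenol red-free DMEM with 10% FBS were preincubated with compound 1 h at 37 °C, then stimulated with IL-2 (final 300 ng/ml) for 30 min. Lysate pSTAT5 read by AlphaLisa; IC50 from inhibition curves, reported as pIC50 (mean±SD).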

[7] = Dynamic moisture sorption (DMS) assessment; assay type: physicochemical; conditions: 25° C.; for hygroscopicity: DMS, 5% to 90% relative humidity; for weight gain (moisture uptake): humidity range of 5% to 90% relative humidity
Protocol: Dynamic moisture sorption (DMS) measurements were performed using a VTI atmospheric microbalance, SGA-100 system (VTI Corp., Hialeah, Fla. 33016). A weighed sample was used and the humidity was lowest possible value (close to 0% RH) at the start of the analysis. The DMS analysis consisted of an initial drying step (0% RH) for 120 minutes, followed by two cycles of sorption and desorption with a scan rate of 5% RH/step over the humidity range of 5% RH to 90% RH. The DMS run was performed isothermally at 25° C.

[8] = selectivity: difference of pKi JAK3 and pKi JAK1
[9] = selectivity JAK3 over JAK1, difference of pKi
[10] = IL-2 stimulated pSTAT5, Tall-1 T cells

T1 sequence (P29597 whole entry): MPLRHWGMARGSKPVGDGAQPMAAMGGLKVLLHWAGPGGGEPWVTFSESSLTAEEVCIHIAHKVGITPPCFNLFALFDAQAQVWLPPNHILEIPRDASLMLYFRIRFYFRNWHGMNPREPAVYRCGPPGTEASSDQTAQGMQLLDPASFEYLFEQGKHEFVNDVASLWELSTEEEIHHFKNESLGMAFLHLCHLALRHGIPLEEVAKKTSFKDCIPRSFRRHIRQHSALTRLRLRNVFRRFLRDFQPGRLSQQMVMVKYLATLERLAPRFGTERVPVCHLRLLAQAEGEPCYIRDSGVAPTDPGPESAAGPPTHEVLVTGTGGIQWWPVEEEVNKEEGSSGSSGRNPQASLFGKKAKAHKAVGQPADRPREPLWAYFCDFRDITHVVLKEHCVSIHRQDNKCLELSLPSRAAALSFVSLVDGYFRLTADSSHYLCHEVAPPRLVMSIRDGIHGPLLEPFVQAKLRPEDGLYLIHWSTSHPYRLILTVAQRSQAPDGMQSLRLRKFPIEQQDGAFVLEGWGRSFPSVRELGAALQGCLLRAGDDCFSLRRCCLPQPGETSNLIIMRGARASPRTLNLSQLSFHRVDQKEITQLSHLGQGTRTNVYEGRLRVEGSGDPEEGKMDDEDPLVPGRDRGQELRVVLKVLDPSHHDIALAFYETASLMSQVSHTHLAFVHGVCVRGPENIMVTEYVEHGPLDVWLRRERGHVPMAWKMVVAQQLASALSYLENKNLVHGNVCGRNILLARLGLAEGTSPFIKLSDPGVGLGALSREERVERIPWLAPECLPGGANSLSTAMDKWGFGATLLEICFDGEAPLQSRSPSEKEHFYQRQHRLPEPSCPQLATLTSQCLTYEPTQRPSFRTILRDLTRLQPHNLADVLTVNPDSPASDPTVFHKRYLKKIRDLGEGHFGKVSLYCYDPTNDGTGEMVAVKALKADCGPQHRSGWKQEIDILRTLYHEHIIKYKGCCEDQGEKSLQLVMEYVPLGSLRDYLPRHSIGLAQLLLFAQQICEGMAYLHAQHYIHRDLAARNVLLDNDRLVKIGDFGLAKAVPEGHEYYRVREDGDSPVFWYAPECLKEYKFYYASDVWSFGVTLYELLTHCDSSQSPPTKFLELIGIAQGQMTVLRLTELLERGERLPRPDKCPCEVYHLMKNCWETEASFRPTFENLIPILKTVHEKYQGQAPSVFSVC

SMILES	Tyk 2 (pKi) [1]	JAK 2 (pKi) [2]	JAK 1 (pKi) [3]	JAK 3 (pKi) [4]	combined stool score endpoint as compared with vehicle treated animals ([5]; 3 mg/kg (PO, BID))	hygroscopicity [7]	weight gain (moisture uptake) [7]	also measured
C=CC(=O)N1CC(C(C)(C)Oc2cc(-c3ccc(O)c(F)c3)nc3[nH]ncc23)C1 [Compound 3-81]	E (a pKi value of 7 or below (Ki of 100 nM or above))	E (a pKi value of 7 or below (Ki of 100 nM or above))	E (a pKi value of 7 or below (Ki of 100 nM or above))	A (a pKi value≥10 (Ki≤0.1 nM))	statistically significant decrease	–	–	JAK3 (pKi)-JAK1 (pKi) [4, 8]: A (a value of 3 or above); Tall-1 (pIC50) ([6]; IL-2 stimulated pSTAT5 in Tall-1 T cells): A (a pIC50 value≥7.5 (IC50≤32 nM))
CC(C)N(C)C/C=C/C(=O)N1CC(COc2cc(-c3ccc(O)cc3)cc3[nH]ncc23)C1 [Compound 3-113]	–	–	–	–	–	–	–	Ki ([1]; read-out: Tyk 2 (pKi) (converted)): > 100 nM; Ki ([2]; read-out: JAK 2 (pKi) (converted)): 10 to 100 nM; Ki ([3]; read-out: JAK 1 (pKi) (converted)): > 100 nM; Ki ([4]; read-out: JAK 3 (pKi) (converted)): < 0.1 nM; JAK3 (pKi)-JAK1 (pKi) [4, 8]: A (a value of 3 or above); combined stool score endpoint as compared with vehicle treated animals ([5]; 1 and 10 mg/kg only (PO, BID)): statistically significant decrease; IC50 ([6]; Homo sapiens, TALL-1, IL-2 stimulated pSTAT5 in Tall-1 T cells, read-out: Tall-1 (pIC50) (converted)): < 31.6 nM
C=CC(=O)N1CC2(CC(Oc3cc(-c4ccc(O)c(Cl)c4)cc4[nH]ncc34)C2)C1 [Compound 15-1]	E (a pKi value of 7 or below (Ki of 100 nM or above))	E (a pKi value of 7 or below (Ki of 100 nM or above))	E (a pKi value of 7 or below (Ki of 100 nM or above))	B (a pKi value between 9 and 10 (Ki between 1 nM and 0.1 nM))	statistically significant decrease	–	–	JAK3 (pKi)-JAK1 (pKi) [4, 9]: A (a value of 3 or above); Tall-1 (pIC50) [6, 10]: A (a pIC50 value≥7.5 (IC50≤32 nM))
C=CC(=O)N1CC2(CC(Oc3nc(-c4ccc(O)cc4)nc4[nH]ncc34)C2)C1 [Compound 15-3]	E (a pKi value of 7 or below (Ki of 100 nM or above))	E (a pKi value of 7 or below (Ki of 100 nM or above))	E (a pKi value of 7 or below (Ki of 100 nM or above))	A (a pKi value≥10 (Ki≤0.1 nM))	statistically significant decrease	–	–	JAK3 (pKi)-JAK1 (pKi) [4, 9]: A (a value of 3 or above); Tall-1 (pIC50) [6, 10]: A (a pIC50 value≥7.5 (IC50≤32 nM))
CN(C)C/C=C/C(=O)N1CC(C(C)(C)Oc2cc(-c3ccc(O)c(Cl)c3)cc3[nH]ncc23)C1 [Form 1, (E)-1-(3-(2-((6-(3-chloro-4-hydroxyphenyl)-1H-indazol-4-yl)oxy)propan-2-yl)azetidin-1-yl)-4-(dimethylamino)but-2-en-1-one]	–	–	–	–	–	slightly hygroscopic	about 1.62%	–
CN(C)C/C=C/C(=O)N1CC(C(C)(C)Oc2cc(-c3ccc(O)c(Cl)c3)cc3[nH]ncc23)C1 [Form 2, (E)-1-(3-(2-((6-(3-chloro-4-hydroxyphenyl)-1H-indazol-4-yl)oxy)propan-2-yl)azetidin-1-yl)-4-(dimethylamino)but-2-en-1-one]	–	–	–	–	–	–	7.99%	–
CN(C)C/C=C/C(=O)N1CC(COc2cc(-c3ccc(O)cc3)cc3[nH]ncc23)C1 [Form 3, (E)-4-(dimethylamino)-1-(3-(((6-(4-hydroxyphenyl)-1H-indazol-4-yl)oxy)methyl)azetidin-1-yl)but-2-en-1-one]	–	–	–	–	–	non-hygroscopic	about 0.33%	–
CN(C)C/C=C/C(=O)N1CC(COc2cc(-c3ccc(O)cc3)cc3[nH]ncc23)C1 [Form 4, (E)-4-(dimethylamino)-1-(3-(((6-(4-hydroxyphenyl)-1H-indazol-4-yl)oxy)methyl)azetidin-1-yl)but-2-en-1-one]	–	–	–	–	–	moderately hygroscopic	about 5.01%	–
